{"source": "patent US20250011348A1", "about": "“Synthesis Process of X-IPM, Stable Crystal Form and Application Thereof” (ASCENTAWITS PHARMACEUTICALS, LTD., priority 2023, published 2025)", "note": "Like-named read-outs stand apart in the source and are kept apart here.", "experimental": "On different days, samples were taken at the same time for analysis and detection of related substances, and their contents were recorded.", "data": [{"substance": "isophosphoramide nitrogen mustard [Br-IPM]", "values": [{"measurement": "Stability of the Br-IPM crystals on storage (in words)", "setting": "placed at 40° C.", "value": "unstable"}, {"measurement": "Br-IPM content in the analysis of related substances", "setting": "stored at 2-8° C., day 0", "value": 93.23, "unit": "%"}, {"measurement": "Br-IPM content in the analysis of related substances", "setting": "stored at 2-8° C., day 3", "value": 93.28, "unit": "%"}, {"measurement": "Br-IPM content in the analysis of related substances", "setting": "stored at 2-8° C., day 4", "value": 95.06, "unit": "%"}, {"measurement": "Br-IPM content in the analysis of related substances", "setting": "stored at 2-8° C., day 5", "value": 94.29, "unit": "%"}, {"measurement": "Br-IPM content in the analysis of related substances", "setting": "stored at 2-8° C., day 6", "value": 94.56, "unit": "%"}, {"measurement": "Br-IPM content in the analysis of related substances", "setting": "stored at 2-8° C., day 7", "value": 95.57, "unit": "%"}, {"measurement": "Br-IPM content in the analysis of related substances", "setting": "stored at 2-8° C., day 10", "value": 95.17, "unit": "%"}, {"measurement": "Br-IPM content in the analysis of related substances", "setting": "stored at 2-8° C., day 11", "value": 95.07, "unit": "%"}, {"measurement": "Br-IPM content in the analysis of related substances", "setting": "stored at 2-8° C., day 12", "value": 95.07, "unit": "%"}, {"measurement": "Br-IPM content in the analysis of related substances", "setting": "stored at 2-8° C., day 13", "value": 95.44, "unit": "%"}, {"measurement": "Br-IPM content in the analysis of related substances", "setting": "stored at 2-8° C., day 14", "value": 95.25, "unit": "%"}, {"measurement": "Br-IPM content in the analysis of related substances", "setting": "stored at 2-8° C., day 17", "value": 95.76, "unit": "%"}, {"measurement": "Br-IPM content in the analysis of related substances", "setting": "stored at 2-8° C., day 21", "value": 95.19, "unit": "%"}, {"measurement": "Br-IPM content in the analysis of related substances", "setting": "stored at 2-8° C., day 28", "value": 96.22, "unit": "%"}, {"measurement": "Br-IPM content in the analysis of related substances", "setting": "stored at 2-8° C., day 35", "value": 95.09, "unit": "%"}, {"measurement": "Time for which the Br-IPM crystals are relatively stable / can be stored", "setting": "stored at 25° C. (room temperature)", "value": 28, "unit": "days"}, {"measurement": "Br-IPM content in the analysis of related substances", "setting": "stored at 25° C., day 0", "value": 93.23, "unit": "%"}, {"measurement": "Br-IPM content in the analysis of related substances", "setting": "stored at 25° C., day 3", "value": 94.17, "unit": "%"}, {"measurement": "Br-IPM content in the analysis of related substances", "setting": "stored at 25° C., day 4", "value": 94.89, "unit": "%"}, {"measurement": "Br-IPM content in the analysis of related substances", "setting": "stored at 25° C., day 5", "value": 94.53, "unit": "%"}, {"measurement": "Br-IPM content in the analysis of related substances", "setting": "stored at 25° C., day 6", "value": 94.32, "unit": "%"}, {"measurement": "Br-IPM content in the analysis of related substances", "setting": "stored at 25° C., day 7", "value": 93.86, "unit": "%"}, {"measurement": "Br-IPM content in the analysis of related substances", "setting": "stored at 25° C., day 10", "value": 94.64, "unit": "%"}, {"measurement": "Br-IPM content in the analysis of related substances", "setting": "stored at 25° C., day 11", "value": 95.25, "unit": "%"}, {"measurement": "Br-IPM content in the analysis of related substances", "setting": "stored at 25° C., day 12", "value": 94.97, "unit": "%"}, {"measurement": "Br-IPM content in the analysis of related substances", "setting": "stored at 25° C., day 13", "value": 95.28, "unit": "%"}, {"measurement": "Br-IPM content in the analysis of related substances", "setting": "stored at 25° C., day 14", "value": 94.61, "unit": "%"}, {"measurement": "Br-IPM content in the analysis of related substances", "setting": "stored at 25° C., day 17", "value": 94.75, "unit": "%"}, {"measurement": "Br-IPM content in the analysis of related substances", "setting": "stored at 25° C., day 21", "value": 93.81, "unit": "%"}, {"measurement": "Br-IPM content in the analysis of related substances", "setting": "stored at 25° C., day 28", "value": 94.01, "unit": "%"}, {"measurement": "Br-IPM content in the analysis of related substances", "setting": "stored at 25° C., day 35", "value": 91.42, "unit": "%"}, {"measurement": "Br-IPM content in the analysis of related substances", "setting": "stored at 40° C., day 0", "value": 93.23, "unit": "%"}, {"measurement": "Br-IPM content in the analysis of related substances", "setting": "stored at 40° C., day 3", "value": 86.36, "unit": "%"}, {"measurement": "Br-IPM content in the analysis of related substances", "setting": "stored at −5° C., day 0", "value": 93.23, "unit": "%"}, {"measurement": "Br-IPM content in the analysis of related substances", "setting": "stored at −5° C., day 3", "value": 94.65, "unit": "%"}, {"measurement": "Br-IPM content in the analysis of related substances", "setting": "stored at −5° C., day 4", "value": 95.12, "unit": "%"}, {"measurement": "Br-IPM content in the analysis of related substances", "setting": "stored at −5° C., day 5", "value": 94.07, "unit": "%"}, {"measurement": "Br-IPM content in the analysis of related substances", "setting": "stored at −5° C., day 6", "value": 95.48, "unit": "%"}, {"measurement": "Br-IPM content in the analysis of related substances", "setting": "stored at −5° C., day 7", "value": 94.96, "unit": "%"}, {"measurement": "Br-IPM content in the analysis of related substances", "setting": "stored at −5° C., day 10", "value": 95.03, "unit": "%"}, {"measurement": "Br-IPM content in the analysis of related substances", "setting": "stored at −5° C., day 11", "value": 95.50, "unit": "%"}, {"measurement": "Br-IPM content in the analysis of related substances", "setting": "stored at −5° C., day 12", "value": 95.04, "unit": "%"}, {"measurement": "Br-IPM content in the analysis of related substances", "setting": "stored at −5° C., day 13", "value": 95.23, "unit": "%"}, {"measurement": "Br-IPM content in the analysis of related substances", "setting": "stored at −5° C., day 14", "value": 95.28, "unit": "%"}, {"measurement": "Br-IPM content in the analysis of related substances", "setting": "stored at −5° C., day 17", "value": 95.07, "unit": "%"}, {"measurement": "Br-IPM content in the analysis of related substances", "setting": "stored at −5° C., day 21", "value": 95.30, "unit": "%"}, {"measurement": "Br-IPM content in the analysis of related substances", "setting": "stored at −5° C., day 28", "value": 94.83, "unit": "%"}, {"measurement": "Br-IPM content in the analysis of related substances", "setting": "stored at −5° C., day 35", "value": 94.64, "unit": "%"}]}]}
